The values that follow come from patent US20220348590A1, “CYCLOOXYGENASE-2 INHIBITORS AND USES THEREOF” (The Board Institute, Inc., priority 2019, published 2022).

Series [1] in a line: Mouse Microsome Stability. It counts as in vitro ADME. As to conditions: mouse microsomes.
Series [2] concerns the target T1, human recombinant COX2 (hCOX2) (UniProt P35354).
T1 sequence (P35354 1-604): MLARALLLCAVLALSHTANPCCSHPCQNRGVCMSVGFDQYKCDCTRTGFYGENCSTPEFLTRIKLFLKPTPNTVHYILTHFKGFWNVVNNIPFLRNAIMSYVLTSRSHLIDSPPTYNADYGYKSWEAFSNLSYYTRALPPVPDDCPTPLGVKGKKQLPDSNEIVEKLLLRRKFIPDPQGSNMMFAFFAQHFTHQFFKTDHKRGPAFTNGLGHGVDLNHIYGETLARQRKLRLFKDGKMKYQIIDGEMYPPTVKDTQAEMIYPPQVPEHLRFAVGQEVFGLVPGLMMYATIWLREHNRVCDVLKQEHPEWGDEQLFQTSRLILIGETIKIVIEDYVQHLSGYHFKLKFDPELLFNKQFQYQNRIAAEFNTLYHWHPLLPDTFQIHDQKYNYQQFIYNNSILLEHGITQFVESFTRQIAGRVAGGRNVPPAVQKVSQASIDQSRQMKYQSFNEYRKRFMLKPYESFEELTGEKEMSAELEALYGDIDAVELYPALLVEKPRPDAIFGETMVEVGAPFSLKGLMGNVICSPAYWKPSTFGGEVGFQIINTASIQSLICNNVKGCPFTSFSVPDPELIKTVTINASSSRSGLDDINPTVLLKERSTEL
Description: LCMS-based COX2 enzymatic inhibition assay (PGE2 quantification). It counts as biochemical. Further details: improvement in potency; other: COX2 potency relative to MC1 / earlier ligand; comparator not always stated; other: vs MC1 (MC-1). The protocol: We have adapted a previously reported cyclooxygenase enzymatic assay utilizing LCMS quantification of PGE2 as the product of COX-1 and COX2 catalyzed conversion of arachidonic acid to evaluate the binding properties of newly synthesized ligands [Cao, 2011]. These optimized and miniaturized (384-well plates) LCMS-based COX-1 and COX2 enzymatic assays enabled us to quickly evaluate newly synthesized ligands for COX2 binding affinity and selectivity vs COX-1. Using a shorter ligand-enzyme incubation time in the LCMS assay (2 minutes vs 10 minutes) also permitted us to prioritize ligands with faster binding kinetics. Considering the relatively slow on-rate kinetics of known coxibs, due to their 3-step binding mechanism [Marnett, 2009], we believe that optimizing this critical parameter will be key to the successful development of a COX2 PET tracer. Using these enzymatic assays, we have evaluated>200 newly synthesized ligands against COX2 and >20 ligands against COX-1. Another critical property necessary for a good PET radiotracer is to have low non-specific binding (NSB) to increase the free fraction and maximize the signal to noise ratio. This property can be evaluated using in-vitro protein binding assays, and we have now evaluated>50 newly synthesized ligands in mouse, rat and human plasma protein binding (PPB) assays as well as >15 ligands in a mouse brain protein binding (BPB) assay.
Ovine COX-1 (oCOX-1), ovine COX2 (oCOX2), human recombinant COX2 (hCOX2), arachidonic acid, PGE2, d4-PGD2, and […] (labeled with deuterium atoms at positions 3 and 4) were purchased from Cayman Chemicals (Ann Arbor, Mich.). The cofactors (−)epinephrine and hematin, and the COX inhibitors indomethacin, resveratrol and diclofenac were purchased from Sigma-Aldrich (St. Louis, Mo.). Celecoxib was purchased from 3B PharmaChem International (Wuhan, China). All organic solvents were HPLC grade or better and were purchased from Thermo Fisher (Hanover Park, Ill.). Formic acid was purchased from EMD Chemicals (San Diego, Calif.). Purified water was prepared by using a Millipore Milli-Q purification system (Millipore, Billerica, Mass.). All other chemicals and solvents were ACS reagent grade, unless stated otherwise.
In an Eppendorf tube, 146 μL of 100 mM Tris.HCl (pH 8.0) buffer, 2 μL of 100 μM hematin (co-factor) and 10 μL of 40 mM L-epinephrine (co-factor) were mixed at room temperature. […]
The concentration of PGE2 in each sample was measured using LC-MS-MS, and the percent of COX inhibition by each test solution was determined by comparing the amount of PGE2 produced in the experiment with that produced in the negative control incubation. The formation of PGD2 was measured for quality control purposes, since the levels of PGD2 should be proportional to those of PGE2. […]

SMILES strings stand for the structures. Entries after “also recorded” stand apart in the source; their conditions may differ.

Consider `COc1ncc(NCc2cccs2)nc1-c1ccc(S(C)(=O)=O)cc1` [Compound 29], for which, in series [1], the “Mouse Microsome Stability % Remaining Avg” value is listed as 4.3%. For `CS(=O)(=O)c1ccc(-c2cccc(NCc3ccoc3)n2)cc1` [Compound 47, N-(furan-3-ylmethyl)-6-(4-(methylsulfonyl)phenyl)pyridin-2-amine], the improvement in potency in series [2] (COX2 potency relative to MC1 / earlier ligand, comparator not always stated) was roughly 4 fold. `CS(=O)(=O)c1ccc(-c2cncc(NCc3cccs3)n2)cc1` [Compound 98]: the “Mouse Microsome Stability % Remaining Avg” value in series [1] was determined as 3%. The “potency / binding affinity compared to MC1” value in series [2] (vs MC1 (MC-1)) is “maintaining potency; also recorded: equivalent binding affinity”.
